Reference: patent EP2832223A1, “HERBICIDAL COMPOSITION” (Ishihara Sangyo Kaisha, Ltd., priority 2012, dated 2013)

How the values were obtained:
Type in all cases: in vivo
[1] = tested on: rostrate sesbania (Sesbania rostrata Bremek. & Oberm.); assay: Test Example 8: pot test, soil treatment, visual growth inhibition; details: soil treatment, 28th day after treatment, read-out: Growth inhibition rate (%) of rostrate sesbania Measured value
Experimental: Upland field soil was put into a 1/300,000 ha pot, and seeds of rostrate sesbania (Sesbania rostrata Bremek. & Oberm.) were sown. On the next day, predetermined amounts of ONEHOPE NYUZAI (tradename), Click (tradename), Spectrum (tradename) and Clio (tradename) were diluted with water (in an amount corresponding to 1,000 L/ha) and applied for soil treatment by a small sprayer.
(§1) On the 28th day after treatment, the state of growth of the rostrate sesbania was visually observed to determine the growth inhibition rate (%). The growth inhibition rate (%) (measured value) and the growth inhibition rate (%) calculated in the same manner as in the above Test Example 1 are shown in Table 8.

[2] = tested on: green foxtail (Setaria viridis (L.) P.Beauv.); assay: Test Example 3: pot test, soil treatment, visual growth inhibition; details: soil treatment, 27th day after treatment, read-out: Growth inhibition rate (%) of green foxtail Measured value
Experimental: Upland field soil was put into a 1/1,000,000 ha pot, and seeds of green foxtail (Setaria viridis (L.) P.Beauv.) were sown. On the next day, predetermined amounts of ONEHOPE NYUZAI (tradename), Click (tradename) and SC formulation containing sulcotrione as an active ingredient (tradename: Mikado, manufactured by Bayer CropScience) were diluted with water (in an amount corresponding to 1,000 L/ha) and applied for soil treatment by a small sprayer.
as §1, with “27th” for “28th”, “green foxtail” for “rostrate sesbania”, “3.” for “8.”

[3] = tested on: guinea grass (Panicum maximum Jacq.); assay: Test Example 15: pot test, soil and foliar treatment, visual growth inhibition; details: Megathyrsus maximus, 31st day after treatment, read-out: Growth inhibition rate (%) of guinea grass Measured value
Experimental: Upland field soil was put into a 1/1,000,000 ha pot, and seeds of guinea grass (Panicum maximum Jacq.) were sown. When the guinea grass reached 5.2 to 6.0-leaf stage, seeds of guinea grass were further sown in the same pot assuming conditions such that weeds would later grow. On the next day, predetermined amounts of ONEHOPE NYUZAI (tradename), Click (tradename), Spectrum (tradename) and Cadou (tradename) were diluted with water in an amount corresponding to 300 L/ha and applied for soil treatment and for foliar treatment by a small sprayer.
as §1, with “31 st” for “28th”, “guinea grass” for “rostrate sesbania”, “15.” for “8.”

| Structure (SMILES) | inhibition at 10 g/ha ([1]; 10 g/ha) | inhibition at 30 g/ha ([2]; 30 g/ha) | inhibition at 20 g/ha ([3]; 20 g/ha) | inhibition at 60 g/ha ([3]; 60 g/ha) | inhibition at 2000 g/ha ([1]; 2000 g/ha) | inhibition at 500 g/ha ([2]; 500 g/ha) | inhibition at 400 g/ha ([3]; 400 g/ha) | inhibition at 1200 g/ha ([3]; 1200 g/ha) |
| --- | --- | --- | --- | --- | --- | --- | --- | --- |
| COc1cc(OC)nc(NC(=O)NS(=O)(=O)c2ncccc2C(=O)N(C)C)n1 [Nicosulfuron, 2-(4,6-dimethoxypyrimidin-2-ylcarbamoylsulfamoyl)-N,N-dimethylnicotinamide] | 0% | 60% | 46% | 83% | – | – | – | – |
| CCNc1nc(Cl)nc(NC(C)(C)C)n1 [Terbuthylazine, N^2-tert-butyl-6-chloro-N^4-ethyl-1,3,5-triazine-2,4-diamine] | – | – | – | – | 0% | 18% | 5% | 23% |
